These results are taken from patent US20220354852A1, “TARGETING WNT SIGNALING FOR IMPROVED GLIOMA IMMUNOTHERAPY” (CITY OF HOPE, priority 2021, published 2022).

In one series the test system is KIF20A. Description: qRT-PCR of KIF20A in PBT147 and PBT030 cells. The series is classed as cell-based, human. Here is the method: ICG-001 activity in vitro in human and mouse glioma cell lines. Initially, the effects of the specific CBP/β-catenin antagonist ICG-001 was tested in vitro as a single agent on human and mouse glioma cell lines (5 PBT human and 3 mouse glioma lines).

The target of series [1] is β-catenin/CBP interaction (Homo sapiens, UniProt Q92793). To be noted: cited from earlier work.
Sequence of β-catenin/CBP interaction (Q92793 whole entry): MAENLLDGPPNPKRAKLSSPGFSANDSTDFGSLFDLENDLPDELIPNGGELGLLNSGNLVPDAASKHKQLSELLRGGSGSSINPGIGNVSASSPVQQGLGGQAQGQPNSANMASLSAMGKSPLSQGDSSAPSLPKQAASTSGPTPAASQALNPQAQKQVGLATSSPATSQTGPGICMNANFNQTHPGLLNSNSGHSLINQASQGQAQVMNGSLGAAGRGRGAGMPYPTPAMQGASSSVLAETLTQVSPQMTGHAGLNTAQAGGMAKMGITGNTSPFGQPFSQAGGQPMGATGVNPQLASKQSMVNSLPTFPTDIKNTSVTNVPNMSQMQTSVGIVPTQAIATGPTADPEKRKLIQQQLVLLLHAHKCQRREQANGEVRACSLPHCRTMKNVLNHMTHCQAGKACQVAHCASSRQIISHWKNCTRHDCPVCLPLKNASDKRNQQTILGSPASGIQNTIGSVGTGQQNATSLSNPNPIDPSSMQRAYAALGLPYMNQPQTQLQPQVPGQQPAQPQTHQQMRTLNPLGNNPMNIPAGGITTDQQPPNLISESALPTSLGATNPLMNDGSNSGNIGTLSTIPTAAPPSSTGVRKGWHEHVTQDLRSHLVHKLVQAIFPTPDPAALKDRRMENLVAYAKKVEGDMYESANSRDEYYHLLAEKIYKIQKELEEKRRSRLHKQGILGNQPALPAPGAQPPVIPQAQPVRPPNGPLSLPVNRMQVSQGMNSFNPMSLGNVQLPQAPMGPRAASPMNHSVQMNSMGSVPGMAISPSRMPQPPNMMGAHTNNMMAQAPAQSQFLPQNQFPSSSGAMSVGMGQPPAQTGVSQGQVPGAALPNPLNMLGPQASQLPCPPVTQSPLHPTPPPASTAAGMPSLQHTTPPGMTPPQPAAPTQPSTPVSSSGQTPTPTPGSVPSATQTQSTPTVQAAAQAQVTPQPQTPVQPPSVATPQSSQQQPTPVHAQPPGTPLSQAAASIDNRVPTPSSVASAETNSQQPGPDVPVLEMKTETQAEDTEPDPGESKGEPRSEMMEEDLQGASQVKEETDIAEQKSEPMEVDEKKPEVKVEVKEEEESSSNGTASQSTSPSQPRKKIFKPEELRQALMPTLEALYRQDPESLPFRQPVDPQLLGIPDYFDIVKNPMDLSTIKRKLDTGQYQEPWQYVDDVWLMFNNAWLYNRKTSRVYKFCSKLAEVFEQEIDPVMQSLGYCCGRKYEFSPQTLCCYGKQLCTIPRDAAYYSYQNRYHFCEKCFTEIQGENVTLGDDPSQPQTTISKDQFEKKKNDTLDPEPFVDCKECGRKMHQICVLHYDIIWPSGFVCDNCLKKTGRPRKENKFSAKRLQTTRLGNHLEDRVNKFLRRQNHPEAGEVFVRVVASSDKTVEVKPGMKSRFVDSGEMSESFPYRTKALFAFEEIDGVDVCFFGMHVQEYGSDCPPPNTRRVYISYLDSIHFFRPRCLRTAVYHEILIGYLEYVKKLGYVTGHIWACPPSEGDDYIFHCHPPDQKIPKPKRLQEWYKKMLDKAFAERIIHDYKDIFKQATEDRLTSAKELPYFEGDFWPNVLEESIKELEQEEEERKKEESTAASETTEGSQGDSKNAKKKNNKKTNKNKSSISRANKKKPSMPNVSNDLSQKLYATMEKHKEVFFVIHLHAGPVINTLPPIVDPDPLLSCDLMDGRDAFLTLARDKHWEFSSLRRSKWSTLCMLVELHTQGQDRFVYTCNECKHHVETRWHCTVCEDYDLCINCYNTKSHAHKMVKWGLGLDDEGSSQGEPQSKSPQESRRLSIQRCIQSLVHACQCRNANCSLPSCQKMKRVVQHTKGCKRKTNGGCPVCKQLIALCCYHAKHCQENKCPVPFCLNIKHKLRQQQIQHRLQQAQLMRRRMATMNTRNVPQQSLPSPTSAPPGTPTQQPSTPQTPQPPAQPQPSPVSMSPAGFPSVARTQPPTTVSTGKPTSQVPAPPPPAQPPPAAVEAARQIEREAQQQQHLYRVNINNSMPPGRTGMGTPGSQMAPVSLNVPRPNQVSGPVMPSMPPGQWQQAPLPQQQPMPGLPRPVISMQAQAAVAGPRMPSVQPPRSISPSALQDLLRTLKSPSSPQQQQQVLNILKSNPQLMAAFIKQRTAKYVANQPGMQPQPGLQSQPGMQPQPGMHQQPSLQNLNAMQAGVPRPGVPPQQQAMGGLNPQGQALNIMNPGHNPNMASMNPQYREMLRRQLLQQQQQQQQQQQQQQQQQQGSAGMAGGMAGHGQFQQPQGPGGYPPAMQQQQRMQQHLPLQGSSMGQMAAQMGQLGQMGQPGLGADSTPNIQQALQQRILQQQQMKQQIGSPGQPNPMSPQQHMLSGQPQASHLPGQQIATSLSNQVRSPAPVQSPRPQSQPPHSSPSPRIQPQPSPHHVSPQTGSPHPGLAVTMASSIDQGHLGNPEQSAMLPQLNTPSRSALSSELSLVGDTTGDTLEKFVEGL
For series [2], the system named is normal somatic stem cell population. As to conditions: preclinical studies; cited from earlier work.
The test system of series [3] is PBT138 patient tumor-derived glioma cells. Description: In vitro cytotoxicity assay, IL13Rα2-CAR T cells ± ICG-001. The format is cell-based, human. Here is the method: FIG. 2. Combinational strategy of CAR T cell-mediated tumor-antigen targeting with ICG-001 induced differentiation in glioma. […] (B) Cytotoxicity of HER2 CAR-T cells and tumor cells (1:5 ratio) was enhanced by ICG-001 at concentrations 1.25-5 μM. (C) Treatment of PBT138 patient glioma tumors with CAR T IL13Rα2+/−ICG-001.
It has also been observed that ICG-001-induced differentiation of PBT017 and PBT138 (data not shown).

The conditions of series [4]: Tran and Zheng 2017; cited from earlier work.
The test system of series [5] is Survivin/BIRC5 (Wnt/CBP/β-catenin signaling). Description: Survivin-luciferase reporter assay. To be noted: PBT017 and PBT030 cell lines. The format is cell-based, human. Here is the method: (§1) FIG. 15. Expression of target genes post-ICG-001 treatment (0-10 μM) by RT-PCR using (A-C) mouse Survivin in GL261-IL13, GL261, and K-luc cells. (D) Survivin in PBT147 human glioma cells. (E, F) Luciferase reporter assay indicating downregulation of Survivin/BIRC5 in PBT017 and PBT030 cell lines.
(§2) FIG. 16 is a table showing the expression of the target genes survivin/BIRC5 post-ICG-001 treatment ([…]) as detected by RT-PCR and Luciferase Reporter Assay.
(§3) ICG-001 differentially affects the expression of the Wnt target genes BIRC5/Survivin and EphB2 in vitro. […] The effects of ICG-001 on Wnt/CBP/β-catenin signaling were further confirmed using a Survivin-luciferase reporter assay (FIG. 15). ICG-001's selective effects on the expression of Survivin and EphB2 may serve as indicators of ICG-001 on target tissue activity in vivo (FIG. 16) and a readout for pharmacokinetics/pharmacodynamics (PK/PD) as used previously in clinical trials with the second-generation CBP/β-catenin specific antagonist PRI-724 (Anthony et al. 2013).
(In general: In a reporter assay the amount or activity of a reporter protein is the signal.)

In series [6] the test system is subcutaneous K-luc tumors. Description: IHC of immune cells in syngeneic subcutaneous K-luc glioma tumors. As to conditions: 50 mg/kg/day by subcutaneous Alzet minipumps. The series is classed as in vivo, mice (C57BL/6). The procedure: FIG. 22. IHC analysis of immune cells in syngeneic models of subcutaneous glioma (K-Luc). (A-D) Mice bearing subcutaneous K-luc glioma tumors were treated with ICG-001 (50 mg/kg/day) for 7, 14, or 21 days. At the end of treatment, tumor was excised and IHC stained for CD3 cells to evaluate recruitment and patterns of CD3 distribution (red). (E) Quantification of tumor coverage using ImageJ for mouse CD3, CD4, CD8, and CD31 positive cells on days 0-21. Scale bars are S.D. of duplicate sections (n=4).
Animal studies. Syngeneic mice (C57BL/6) of 8-12 weeks of age were implanted with subcutaneous K-Luc tumors (n=8). 7 days after, when tumors became palpable and after confirmation of the tumor presence with BLU imaging, mice were implanted with Alzet minipumps with ICG001 (50 mg/kg/day). Pumps were continuously providing a daily dose of ICG-001. […]
IHC was performed in COH pathology core. Tissues were scanned and quantification of CD4, CD8 and CD31 expression was done using ImageJ software.
Image analysis. Images were processed and analyzed in the ImageJ (Schneider et al. 2012, also see Schneider, C. A., Rasband, W. S., Image J, U. S. National Institutes of Health, Bethesda, Md., USA, https://imagej.nih.gov/ij/, 1997-2018). […] A watershed filter was then applied to this processed mask and the ‘Analyze Particles’ tool with a 4 pixel minimum size was employed to quantify the cells identified. […]

Series [7] deals with CAR T cells (HER2 and mock). Description: Viability and cell count of CAR T / mock T cells treated with ICG-001. As to conditions: ICG001 0, 2.5, 5 uM for 24-72 h. The series is classed as cell-based. The procedure: FIG. 27. T cells treated with ICG001 2.5 and 5 μM for 24 or 72 h. (A) CAR Ts mock and HER2 from one donor and mock CARs derived from two additional donors were plated on 6-well format plates and treated with ICG001 at concentrations 0-5 μM for 24 or 72 h. Cells were collected from each well, counted, and viability was determined. (B, C) NanoString analysis of T cells treated with ICG-001 to determine concentration-dependent metabolic changes. […] (E) Correlation of differential gene expression in all T cell lines combined at concentration of 2.5 and 5 μM.
FIG. 29 is a bar graph showing the results of studies where CAR T calls are treated with ICG001 for 24 hours according to some embodiments. To determine how treatment with ICG001 affects the T cells, the following method was employed. On day 1, CAR Ts HER 2 or Mock CARs derived from the same donor and additional 2 donor mock cells were plated on 6 well format plates and treated with ICG001 0 uM, 2.5 uM, 5 uM for 24-72 h. On day 5, cells were collected per well, counted, cell viability was determined [pellets were frozen]. […] Note: CAR T from 494 donor treated with ICG001 were used in cytotoxicity assay #19 in comparison with untreated 4949 CARs.

Series [8] has as its system tumor cell glycolytic activity. To be noted: previously shown; cited from earlier work.
Series [9] relates to Wnt target genes BIRC5/Survivin and EphB2. Description: Quantitative RT-PCR of Wnt target genes in mouse glioma cell lines. The format is cell-based. The procedure:
as §1, §2, §3

Regarding `O=C1[C@H](Cc2ccc(O)cc2)N2C(=O)CCN(C(=O)NCc3ccccc3)[C@H]2CN1Cc1cccc2ccccc12` [ICG-001], in the series on KIF20A, the KIF20A expression entry is given as “decreased expression of KIF20A”. The “blockade of β-catenin/CBP versus β-catenin/p300 interaction” value in [1] was “selectively blocks the β-catenin/CBP interaction without interfering with the β-catenin/p300 interaction”. Also, in series [2], the therapy-induced toxicity result was “ameliorated therapy-induced toxicity”. The “tumor cell killing, ICG-001 in combination with IL13Rα2-CAR T cells” value in series [3] is “synergistic killing”. Moreover, the blood-brain barrier crossing entry in [4] is listed as “cross the blood-brain barrier”. Also, in series [5], the “Survivin/BIRC5 luciferase reporter activity” value is given as “downregulation”. The “CD3+, CD8+, and CD4+ cells infiltrating the tumor” value in series [6] (by day 14) is listed as “increase in mouse host immune cells”. Also, in series [6] (days 7, 14, 21), the “CD31 expression in tumor” value was “time-dependent increase”. In addition, the “CAR T cell viability and proliferation” value in series [7] is “not toxic to T cells in vitro”; in [7] (listed as ICG001) it was “not affecting Car T cell viability and proliferation”. Further, the “glycolytic activity and extracellular acidification of tumor cells” value in [8] was “decrease in glycolytic activity and extracellular acidification”. Also, the “expression of Wnt/p300/β-catenin target gene EphB2” value in series [9] is “upregulating”. The “expression of Wnt/CBP/β-catenin target gene BIRC5/Survivin” value in series [9] (ICG-001 0-10 μM) was “selectively downregulated”.
